This experiment addresses T1, human URAT1 (Homo sapiens, UniProt Q96S37).
T1 construct: Human URAT1 full length cDNA was subcloned to expression vector pcDNA3.1; expressed in transfected cells; host or cells: HEK293 cells (pcDNA3.1, geneticin-selected)
T1 sequence (Q96S37 1-553): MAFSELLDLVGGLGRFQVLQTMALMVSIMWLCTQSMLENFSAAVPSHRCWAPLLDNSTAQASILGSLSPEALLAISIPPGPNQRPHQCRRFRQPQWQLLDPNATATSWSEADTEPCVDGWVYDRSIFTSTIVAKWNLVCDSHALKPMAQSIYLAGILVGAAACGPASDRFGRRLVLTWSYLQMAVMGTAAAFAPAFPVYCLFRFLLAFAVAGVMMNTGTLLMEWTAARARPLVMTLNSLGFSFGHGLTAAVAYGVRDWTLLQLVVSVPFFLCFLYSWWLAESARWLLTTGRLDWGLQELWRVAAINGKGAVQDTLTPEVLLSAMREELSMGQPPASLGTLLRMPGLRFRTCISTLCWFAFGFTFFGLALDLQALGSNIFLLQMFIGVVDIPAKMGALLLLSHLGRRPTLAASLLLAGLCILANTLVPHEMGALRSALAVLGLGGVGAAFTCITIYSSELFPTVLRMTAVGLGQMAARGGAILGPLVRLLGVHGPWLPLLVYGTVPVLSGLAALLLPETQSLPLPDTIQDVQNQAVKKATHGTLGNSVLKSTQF
Briefly: Uric acid transport inhibitory test using human URAT1-expressing cells. Type of experiment: cell-based. Particulars: human URAT1 expressing HEK293 cells, uptake of 14C-labeled uric acid for 5 min, room temperature; read-out: hURAT1 (IC50, concentration necessary for inhibiting the uric acid transport rate by 50%). The source says: Reference Experimental Example 1 Uric Acid Transport Inhibitory Test Using Human Urat1-Expressing Cells
Human URAT1 full length cDNA was subcloned to expression vector pcDNA3.1 and human URAT1 gene was transfected into human embryonic kidney derived cell line (HEK293 cells) by liposome method using Lipofectamine2000. Simultaneously, HEK293 cells transfected with expression vector pcDNA3.1 alone (hereinafter mock cells) were also produced. HEK293 cells expressing human URAT1 gene or mock cells were selected with geneticin resistance as an index. The functional expression of human URAT1 gene was confirmed by a method similar to the following method, using transport of uric acid labeled with ^14C into the cells as an index.
Human URAT1 expressing HEK293 cells or mock cells were cultured in Dulbecco's modified Eagle's MEM medium (high glucose) containing 10% fetal bovine serum, 0.5 mg/mL geneticin sulfate, 100 units/mL penicillin and 100 μg/mL streptomycin under the conditions of 37° C. and 5% CO2 in an incubator. The cells were plated in a 96 well plate (poly-D-Lysine coated) at 1×10^5 cells/well and the following uric acid transport inhibitory test was performed 24 hr later. This test was performed at room temperature.
After the medium was removed by aspiration from each well, the cells were washed once with Hank's Balanced Salt Solution (HBSS) and preincubated with HBSS ([…]) for 5 min. HBSS was aspirated and an assay buffer (wherein NaCl in the above-mentioned HBSS had been substituted with Na-gluconate) containing various concentrations of the Example compound and a radioactive ligand (uric acid labeled with 14C; final concentration […]) was added to each well at […] and an uptake reaction was carried out for 5 min. After the reaction, the cells were washed twice with ice-cold HBSS ([…]), and Microscin ti TM 20 (PerkinElmer) was added at […]. The cells were lysed by stirring and the radioactivity of each well was measured in a liquid scintillation counter (TOP COUNT, Packard).
The uric acid transport rate (%) of the Example compound at each concentration was calculated relative to the radioactivity (difference in radioactivity between human URAT1 expressing HEK293 cells and mock cells without addition of Example compound (DMSO addition)) showing URAT1 specific uric acid transport as 100%, and the concentration (IC50) of the Example compound necessary for inhibiting the uric acid transport rate by 50% was determined. In Table-Table, “+++” means IC50 value of less than 100 nM, “++” means IC50 value of 100 nM to less than 1000 nM, and “+” means IC50 value of 1000 nM to less than 3000 nM.
Regarding `O=C(c1cc(Cl)c(O)c(Cl)c1)N1CCOc2ccc(-c3ccccc3)cc21` [Example 65, (3,5-dichloro-4-hydroxyphenyl)-(6-phenyl-2,3-dihydrobenzo[1,4]oxazin-4-yl)-methanone], the IC50 was in the range of 1000 to 3000 nM. In the case of `Cc1cc(C)c2c(c1)N(C(=O)c1cc(Cl)c(O)c(Cl)c1)CCO2` [Example 66, (3,5-dichloro-4-hydroxyphenyl)-(6,8-dimethyl-2,3-dihydrobenzo[1,4]oxazin-4-yl)-methanone], the IC50 was 100 to 1000 nM. To `O=C(c1cc(Cl)c(O)c(Cl)c1)N1CCOc2ccc([N+](=O)[O-])cc21` [Example 67, (3,5-dichloro-4-hydroxyphenyl)-(6-nitro-2,3-dihydrobenzo[1,4]oxazin-4-yl)-methanone] belongs < 100 nM; to `Nc1ccc2c(c1)N(C(=O)c1cc(Cl)c(O)c(Cl)c1)CCO2` [Example 68, (6-amino-2,3-dihydrobenzo[1,4]oxazin-4-yl)-(3,5-dichloro-4-hydroxyphenyl)-methanone], 100 to 1000 nM; to `O=C(c1cc(Br)c(O)c(Br)c1)N1CCOc2ccc([N+](=O)[O-])cc21` [Example 69, (3,5-dibromo-4-hydroxyphenyl)-(6-nitro-2,3-dihydrobenzo[1,4]oxazin-4-yl)-methanone], < 100 nM. In the case of `O=C(c1cc(Cl)c(O)c(Cl)c1)N1CCOc2cc([N+](=O)[O-])ccc21` [Example 70, (3,5-dichloro-4-hydroxyphenyl)-(7-nitro-2,3-dihydrobenzo[1,4]oxazin-4-yl)-methanone], the IC50 is 100 to 1000 nM.

Take `Nc1ccc2c(c1)OCCN2C(=O)c1cc(Cl)c(O)c(Cl)c1` [Example 71, (7-amino-2,3-dihydrobenzo[1,4]oxazin-4-yl)-(3,5-dichloro-4-hydroxyphenyl)-methanone]: the IC50 fell in the range of 1000 to 3000 nM.

In the case of `CC(=O)N1CCN(C(=O)c2cc(Cl)c(O)c(Cl)c2)c2ccccc21` [Example 73, 1-[4-(3,5-dichloro-4-hydroxybenzoyl)-3,4-dihydro-2H-quinoxalin-1-yl]-ethanone], the IC50 fell in the range of 100 to 1000 nM. To `CN1CCN(C(=O)c2cc(Cl)c(O)c(Cl)c2)c2ccccc21` [Example 74, (3,5-dichloro-4-hydroxyphenyl)-(4-methyl-3,4-dihydro-2H-quinoxalin-1-yl)-methanone] belongs 100 to 1000 nM; to `O=C(c1ccc(O)c([N+](=O)[O-])c1)N1CCOc2ccccc21` [Example 75, (2,3-dihydrobenzo[1,4]oxazin-4-yl)-(4-hydroxy-3-nitrophenyl)-methanone], 100 to 1000 nM; to `O=C(c1cc(Cl)c(O)c(Cl)c1)N1CCc2ccccc21` [Example 77, (3,5-dichloro-4-hydroxyphenyl)-(2,3-dihydroindol-1-yl)-methanone], 100 to 1000 nM. For `Nc1ccc2c(c1)CCN2C(=O)c1cc(Cl)c(O)c(Cl)c1` [Example 78, (5-amino-2,3-dihydroindol-1-yl)-(3,5-dichloro-4-hydroxyphenyl)-methanone], the IC50 lay within 100 to 1000 nM. To `O=C(c1cc(Br)c(O)c(Br)c1)N1CCOc2ccc(F)cc21` [Example 79, (3,5-dibromo-4-hydroxyphenyl)-(6-fluoro-2,3-dihydrobenzo[1,4]oxazin-4-yl)-methanone] belongs < 100 nM; to `O=C(c1cc(Br)c(O)c(Br)c1)N1CCOc2ccc3ccccc3c21` [Example 80, (3,5-dibromo-4-hydroxyphenyl)-(2,3-dihydronaphtho[2,1-b][1,4]oxazin-1-yl)-methanone], < 100 nM. For `Cc1ccc2c(c1)N(C(=O)c1cc(Br)c(O)c(Br)c1)CCO2` [Example 81, (3,5-dibromo-4-hydroxyphenyl)-(6-methyl-2,3-dihydrobenzo[1,4]oxazin-4-yl)-methanone] the value was < 100 nM; for `O=C(c1cc(Br)c(O)c(Br)c1)N1CCOc2ccc(Cl)cc21` [Example 82, (6-chloro-2,3-dihydrobenzo[1,4]oxazin-4-yl)-(3,5-dibromo-4-hydroxyphenyl)-methanone], < 100 nM. For `CS(=O)(=O)N1CCN(C(=O)c2cc(Cl)c(O)c(Cl)c2)c2ccccc21` [Example 83, (3,5-dichloro-4-hydroxyphenyl)-(4-methanesulfonyl-3,4-dihydro-2H-quinoxalin-1-yl)-methanone] the value was 100 to 1000 nM.

Consider `CCS(=O)(=O)c1ccc2c(c1)N(C(=O)c1cc(Cl)c(O)c(Cl)c1)CCO2` [Example 84, (3,5-dichloro-4-hydroxyphenyl)-(6-ethanesulfonyl-2,3-dihydrobenzo[1,4]oxazin-4-yl)-methanone], for which the IC50 lay in the range of 1000 to 3000 nM. For `O=C(c1cc(Cl)c(O)c(Cl)c1)N1CCOc2ccc(C(F)(F)F)cc21` [Example 85, (3,5-dichloro-4-hydroxyphenyl)-(6-trifluoromethyl-2,3-dihydrobenzo[1,4]oxazin-4-yl)-methanone] the value was < 100 nM; for `COc1c(Cl)cc(C(=O)N2CCOc3ccccc32)cc1Cl` [Example 86, (3,5-dichloro-4-methoxyphenyl)-(2,3-dihydrobenzo[1,4]oxazin-4-yl)-methanone], 1000 to 3000 nM; for `CC(=O)Oc1c(Cl)cc(C(=O)N2CCOc3ccccc32)cc1Cl` [Example 87, 2,6-dichloro-4-(2,3-dihydrobenzo[1,4]oxazine-4-carbonyl)-phenyl acetate], 100 to 1000 nM. In the case of `O=C(c1cc(Cl)c(O)c(Cl)c1)N1CCOc2cccc(O)c21` [Example 89, (3,5-dichloro-4-hydroxyphenyl)-(5-hydroxy-2,3-dihydrobenzo[1,4]oxazin-4-yl)-methanone], the IC50 was < 100 nM. Consider `O=C(c1cc(Cl)c(O)c(Cl)c1)N1CCOc2c(O)cccc21` [Example 90, (3,5-dichloro-4-hydroxyphenyl)-(8-hydroxy-2,3-dihydrobenzo[1,4]oxazin-4-yl)-methanone], for which the IC50 is 100 to 1000 nM. For the compound `CCOC(=O)COc1c(Cl)cc(C(=O)N2CCOc3ccccc32)cc1Cl` [Example 91, ethyl [2,6-dichloro-4-(2,3-dihydrobenzo[1,4]oxazine-4-carbonyl)phenoxy]acetate], the IC50 was 1000 to 3000 nM. To `O=C(c1cc(Cl)c(O)c(Cl)c1)N1CCCOc2ccccc21` [Example 95, (3,5-dichloro-4-hydroxyphenyl)-(7,8-dihydro-6H-5-oxa-9-azabenzocyclohepten-9-yl)-methanone] belongs 100 to 1000 nM.

Values taken from US20080064871A1, “Production Method of Nitrogen-Containing Fused Ring Compounds” (Japan Tobacco Inc., priority 2006, published 2008).
